Earlier results as cited in patent US7658956B2, “Erectile dysfunction phyto-nutraceutical synergistic composition” (priority 2006, dated 2010).

Key:
spermatozoa = details: in vitro
[1] = system: bacterial resistance mechanism (multidrug pump)
[2] = system: patients with erectile dysfunction; details: 30 patients per group

Compound: Vitamin E
- treated patients who impregnated their spouses (asthenospermic patients; Eleven out of 52 treated patients): 21%
- MDA concentration in spermatozoa (asthenospermic patients; oral, asthenospermic patients): significantly decreased
- sperm motility (asthenospermic patients; oral, asthenospermic patients): improved sperm motility
- ROS mediated damage on spermatozoa (spermatozoa): protects against ROS mediated damage

Compound: C[C@H](CC[C@@]1(O)O[C@H]2C[C@H]3[C@@H]4CC=C5C[C@@H](O[C@@H]6O[C@H](CO)[C@@H](O[C@@H]7O[C@@H](C)[C@H](O)[C@@H](O)[C@H]7O)[C@H](O)[C@H]6O[C@@H]6O[C@@H](C)[C@H](O)[C@@H](O)[C@H]6O)CC[C@]5(C)[C@H]4CC[C@]3(C)[C@H]2[C@@H]1C)CO[C@@H]1O[C@H](CO)[C@@H](O)[C@H](O)[C@H]1O [Protodioscin]
- pro-erectile activity (relaxant effect) (rabbit corpus cavernosum): pro-erectile activity

Compound: COc1cc([C@H]2Oc3cc(-c4cc(=O)c5c(O)cc(O)cc5o4)cc(OC)c3O[C@@H]2CO)ccc1O (racemic) [5′-MHC, 5′-methoxyhydnocarpin]
- accumulation of berberine in the cells ([1]; in the presence of 5′-MHC): strong increase
- activity of herbal Berberine alkaloids under the action of 5′-MHC ([1]; in vitro): strongly potentiated

Compound: O=c1n(CCCN2CCN(c3cccc(Cl)c3)CC2)nc2ccccn12 [trazodone]
- overall therapeutic efficacies on erectile dysfunction [2]: 30%
